Literature values as cited in article PMC2946453 (Journal of pharmaceutical and biomedical analysis, 2010).
Where two headings read alike, the source gives them in different places.

What was measured:
[1] = tested on: COX-1; details: read-out: IC50 COX-1; form of COX not mentioned
[2] = tested on: COX-2; details: read-out: IC50 COX-2; form of COX not mentioned
[3] = tested on: COX-1; details: read-out: IC50 COX-1; bovine aortic coronary endothelial cells
[4] = tested on: human COX-2; details: read-out: IC50 COX-2
[5] = molecular target: T1, ovine COX-1 (Ovis aries, UniProt P05979); details: read-out: Km ovine COX-1; radiolabeled arachidonic acid
T1 sequence (P05979 25-600): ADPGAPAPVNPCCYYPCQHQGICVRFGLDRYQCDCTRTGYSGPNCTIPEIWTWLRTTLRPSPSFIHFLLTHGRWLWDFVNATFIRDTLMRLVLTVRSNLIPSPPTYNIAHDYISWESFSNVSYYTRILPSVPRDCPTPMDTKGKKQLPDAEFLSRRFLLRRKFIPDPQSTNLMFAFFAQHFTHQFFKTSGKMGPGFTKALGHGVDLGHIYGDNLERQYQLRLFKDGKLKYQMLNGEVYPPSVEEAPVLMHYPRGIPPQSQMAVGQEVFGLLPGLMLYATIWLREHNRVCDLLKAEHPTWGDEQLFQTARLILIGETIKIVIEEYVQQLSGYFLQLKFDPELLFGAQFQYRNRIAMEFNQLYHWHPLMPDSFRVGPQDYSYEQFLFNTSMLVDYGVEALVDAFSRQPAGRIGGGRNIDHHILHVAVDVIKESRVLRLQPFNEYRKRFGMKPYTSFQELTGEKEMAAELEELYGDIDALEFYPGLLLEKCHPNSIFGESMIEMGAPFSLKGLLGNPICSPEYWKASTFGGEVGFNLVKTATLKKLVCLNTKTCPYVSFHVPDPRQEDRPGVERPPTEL

Question: For `Oc1ccc(/C=C/c2cc(O)cc(O)c2)cc1` [Resveratrol], which IC50 [1] is on record?
Answer: 830 ± 440 nM

Question: What about the IC50 [2] of the same molecule?
Answer: 990 ± 400 nM

Question: For `CCCCC/C=C\C/C=C\C/C=C\C/C=C\CCCC(=O)O` [arachidonic acid], which Km [5] is on record?
Answer: 3.7 ± 0.5 µM
